In patent US20240408080A1, “PHARMACEUTICAL COMPOSITIONS OF CGRP INHIBITORS AND METHODS OF THEIR USE” (Pfizer Ireland Pharmaceuticals, priority 2021, published 2024):

Key:
[1] = Phase 1 multiple ascending dose (MAD) study, intranasal, pharmacokinetics; format: in vivo, human; conditions: for AUC: human
Protocol: A Phase 1, single-center, randomized, double-blind, placebo-controlled, sequential multiple ascending dose (MAD) study with 2 alternate dosing arms was conducted. […] The MAD portion of the study consists of 4 cohorts, with a maximum dose of 20 mg administered once daily for up to 14 days in 3 cohorts, and 20 mg administered twice daily for up to 8 days in the fourth cohort.
In addition to the 4 MAD cohorts, there were 2 alternate dosing cohorts, each consisting of 1 day dosing. The first alternate dosing cohort assessed the effect of 2 sequential administrations of 20 mg (20 mg spray [100 μL of 200 mg/mL] in alternate nostrils); with a 30 minute interval between administrations. A 2nd alternate dosing cohort assessed the effect of 2 sequential administrations of 20 mg (20 mg spray [100 μL of 200 mg/mL] in alternate nostrils); with a nose blow and 5 minute interval between administrations.
The PK data were collected from subjects in Cohorts 1 to 4.

[2] = Phase 2/3 clinical trial BHV3500-201 (Study 201), safety, adverse events and liver function tests; format: in vivo, human
[3] = pH-solubility profile (physical and chemical properties of drug substance); format: physicochemical; conditions: mono-hydrochloride salt
[4] = pKa (physical and chemical properties of drug substance); format: physicochemical
[5] = system: acute treatment of migraine; assay: Phase 2/3 clinical trial BHV3500-201 (Study 201), efficacy of intranasal zavegepant versus placebo; format: in vivo, human; conditions: for (2) Return to normal function at 2 hours posidose, Stratified Percentage Difference (Zavegepant − Placebo) / (7) Return to normal function at 60 minutes postdose, Stratified Percentage Difference (Zavegepant − Placebo) / (9) Return to normal function at 30 minutes postdose, Stratified Percentage Difference (Zavegepant − Placebo): subjects with functional disability at onset; for (9) Return to normal function at 30 minutes postdose, n/N (%): mITT subjects with functional disability at on-study migraine attack onset
[6] = Zavegepant 5 mg Group vs placebo, CMH weighting, mITT subjects
[7] = Zavegepant 5 mg Group vs placebo, CMH weighting
[8] = Zavegepant 5 mg Group, intranasal single dose, mITT subjects
[9] = Zavegepant 10 mg Group vs placebo, CMH weighting, mITT subjects
[10] = Zavegepant 10 mg Group vs placebo, CMH weighting
[11] = Zavegepant 10 mg Group, intranasal single dose, mITT subjects
[12] = Zavegepant 20 mg Group vs placebo, CMH weighting, mITT subjects
[13] = Zavegepant 20 mg Group vs placebo, CMH weighting
[14] = Zavegepant 20 mg Group vs placebo, CMH weighting, subjects with symptom present at onset

With `Cc1cc(C[C@@H](NC(=O)N2CCC(c3cc4ccccc4[nH]c3=O)CC2)C(=O)N2CCN(C3CCN(C)CC3)CC2)cc2cn[nH]c12` [Zavegepant, (R)-N-(3-(7-methyl-1H-indazol-5-yl)-1-(4-(1-methylpiperidin-4-yl)piperazin-1-yl)-1-oxopropan-2-yl)-4-(2-oxo-1,2-dihydroquinolin-3-yl)piperidine-1-carboxamide] the “Plasma Concentrations (Mean)” value ([1]; 5 mg, Day 14, 0.500 h) was 8.08 ng/mL, the AUC ([1]; in vivo, 5 mg) was 19 ng·h/mL and the AUC ([1]; in vivo, 10 mg) was 30.9 ng·h/mL. The AUC ([1]; in vivo, 20 mg) was 87.9 ng·h/mL, the urine concentrations ([1]; in vivo) was “below the limit of quantitation” and the “ALT or AST > 3x ULN (subjects)” value ([2]; 5 mg (N = 388)) was 0. The “Bilirubin > 2x ULN (subjects)” value ([2]; 5 mg (N = 388)) was 0, the “ALT or AST > 3x ULN (subjects)” value ([2]; 10 mg (N = 394)) was 0 and the “Bilirubin > 2x ULN (subjects)” value ([2]; 10 mg (N = 394)) was 0. The “ALT or AST > 3x ULN (subjects)” value ([2]; 20 mg (N = 403)) was 0, the “Bilirubin > 2x ULN (subjects)” value ([2]; 20 mg (N = 403)) was 0 and the “ALT or AST > 3x ULN (subjects)” value ([2]; All zavegepant (N = 1185)) was 0. The “Bilirubin > 2x ULN (subjects)” value ([2]; All zavegepant (N = 1185)) was 0, the “hepatotoxicity signal (AST or ALT>3× ULN, total bilirubin>2× ULN)” value ([2]; any treatment arm) was “no signal of hepatoxicity” and the tolerability and safety ([2]; intranasal, single dose trial) was “well tolerated and safe”. The “AEs mild in intensity” value ([2]; single dose trial) was greater than 80%, the pH-solubility profile ([3]; at lower pH) was greater than 300 mg/mL and the pH-solubility profile ([3]; pH = 8.2) was 105 mg/mL. The “pKa (second value)” value [4] was 8.8, the “Freedom from MBS (Most Bothersome Symptom), 2 Hour Endpoint” value ([5]; 5 mg single dose) was 39.0% and the “Pain Relief at 15 Minutes Post-Dose, n/N (value in brackets)” value ([5]; 15 mg (so in the source), Prophylactic migraine medication use: Yes) was 13/50 (24.0). The “return to normal function” value ([5]; 20 mg) was “return to normal function as early as 30 minutes”, the “onset of pain relief” value ([5]; 5, 10, and 20 mg single dose, stratified CMH tests, mITT) was “pain relief as early as 15 minutes post-dose” and the “co-primary endpoints of pain freedom and freedom from MBS at 2 hours versus placebo” value ([5]; 10 and 20 mg single dose) was “statistically superior (p<0.05) to placebo”. For the same compound, the “(1) Pain relief at 2 hours postdose, Stratified Percentage Difference (Zavegepant − Placebo)” value [5, 6] was 4.2%, the “(3) Rescue medication use within 24 hours postdose, Stratified Percentage Difference (Zavegepant − Placebo)” value [5, 6] was −2.4% and the “(4) Photophobia freedom at 2 hours postdose, Stratified Percentage Difference (Zavegepant − Placebo)” value [5, 6] was 4.6%. The “(6) Pain relief at 60 minutes postdose, Stratified Percentage Difference (Zavegepant − Placebo)” value [5, 6] was 5.1%, the “(8) Pain relief at 30 minutes postdose, Stratified Percentage Difference (Zavegepant − Placebo)” value [5, 6] was 1.9% and the “(10) Sustained pain relief from 2 to 24 hours postdose, Stratified Percentage Difference (Zavegepant − Placebo)” value [5, 6] was 8.0%. The “(11) Sustained pain freedom from 2 to 24 hours postdose, Stratified Percentage Difference (Zavegepant − Placebo)” value [5, 6] was 5.3%, the “(12) Sustained pain relief from 2 to 48 hours postdose, Stratified Percentage Difference (Zavegepant − Placebo)” value [5, 6] was 7.4% and the “(13) Sustained pain freedom from 2 to 48 hours postdose, Stratified Percentage Difference (Zavegepant − Placebo)” value [5, 6] was 5.5%. For the same compound, the “(2) Return to normal function at 2 hours posidose, Stratified Percentage Difference (Zavegepant − Placebo)” value [5, 7] was 4.3%, the “(7) Return to normal function at 60 minutes postdose, Stratified Percentage Difference (Zavegepant − Placebo)” value [5, 7] was 5.5% and the “(9) Return to normal function at 30 minutes postdose, Stratified Percentage Difference (Zavegepant − Placebo)” value [5, 7] was 3.4%. For the same compound, the “(14) Nausca freedom at 2 hours postdose, Stratified Percentage Difference (Zavegepant − Placebo)” value ([5]; Zavegepant 5 mg Group vs placebo, CMH weighting, subjects with symptom present at onset) was 1.8%, the “(4) Photophobia freedom at 2 hours postdose, n/N (%)” value [5, 8] was 118/337 (35.0) % and the “(6) Pain relief at 60 minutes postdose, n/N (%)” value [5, 8] was 182/387 (47.0) %. For the same compound, the “(9) Return to normal function at 30 minutes postdose, n/N (%)” value (shortened to “(9) Return to normal function … (%)”) ([5]; Zavegepant 5 mg Group, intranasal single dose) was 32/363 (8.8) %, the “(1) Pain relief at 2 hours postdose, Stratified Percentage Difference (Zavegepant − Placebo)” value [5, 9] was 7.1% and the “(3) Rescue medication use within 24 hours postdose, Stratified Percentage Difference (Zavegepant − Placebo)” value [5, 9] was −1.1%. The “(4) Photophobia freedom at 2 hours postdose, Stratified Percentage Difference (Zavegepant − Placebo)” value [5, 9] was 5.1%, the “(6) Pain relief at 60 minutes postdose, Stratified Percentage Difference (Zavegepant − Placebo)” value [5, 9] was 4.2% and the “(8) Pain relief at 30 minutes postdose, Stratified Percentage Difference (Zavegepant − Placebo)” value [5, 9] was 5.3%. The “(10) Sustained pain relief from 2 to 24 hours postdose, Stratified Percentage Difference (Zavegepant − Placebo)” value [5, 9] was 6.8%, the “(11) Sustained pain freedom from 2 to 24 hours postdose, Stratified Percentage Difference (Zavegepant − Placebo)” value [5, 9] was 6.1% and the “(12) Sustained pain relief from 2 to 48 hours postdose, Stratified Percentage Difference (Zavegepant − Placebo)” value [5, 9] was 7.0%. For the same compound, the “(13) Sustained pain freedom from 2 to 48 hours postdose, Stratified Percentage Difference (Zavegepant − Placebo)” value [5, 9] was 6.3%, the “(2) Return to normal function at 2 hours posidose, Stratified Percentage Difference (Zavegepant − Placebo)” value [5, 10] was 7.1% and the “(7) Return to normal function at 60 minutes postdose, Stratified Percentage Difference (Zavegepant − Placebo)” value [5, 10] was 1.8%. The “(9) Return to normal function at 30 minutes postdose, Stratified Percentage Difference (Zavegepant − Placebo)” value [5, 10] was 2.1%, the “(15) Pain relapse from 2 to 48 hours postdose, Stratified Percentage Difference (Zavegepant − Placebo)” value ([5]; Zavegepant 10 mg Group vs placebo, CMH weighting, subjects with pain freedom at 2 hours postdose) was −17.0% and the “(14) Nausca freedom at 2 hours postdose, Stratified Percentage Difference (Zavegepant − Placebo)” value ([5]; Zavegepant 10 mg Group vs placebo, CMH weighting, subjects with symptom present at onset) was 2.9%. For the same compound, the “(3) Rescue medication use within 24 hours postdose, n/N (%)” value [5, 11] was 101/388 (26.0) %, the “(6) Pain relief at 60 minutes postdose, n/N (%)” value [5, 11] was 180/391 (46.0) % and the “(9) Return to normal function … (%)” value ([5]; Zavegepant 10 mg Group, intranasal single dose) was 27/354 (7.6) %. The “(15) Pain relapse from 2 to 48 hours postdose, n/N (%)” value ([5]; Zavegepant 10 mg Group, intranasal single dose, mITT subjects with pain freedom at 2 hours postdose) was 29/88 (33.0) %, the “(1) Pain relief at 2 hours postdose, Stratified Percentage Difference (Zavegepant − Placebo)” value [5, 12] was 7.5% and the “(3) Rescue medication use within 24 hours postdose, Stratified Percentage Difference (Zavegepant − Placebo)” value [5, 12] was −7.1%. For the same compound, the “(4) Photophobia freedom at 2 hours postdose, Stratified Percentage Difference (Zavegepant − Placebo)” value [5, 12] was 7.4%, the “(6) Pain relief at 60 minutes postdose, Stratified Percentage Difference (Zavegepant − Placebo)” value [5, 12] was 7.8% and the “(8) Pain relief at 30 minutes postdose, Stratified Percentage Difference (Zavegepant − Placebo)” value [5, 12] was 1.9%. For the same compound, the “(10) Sustained pain relief from 2 to 24 hours postdose, Stratified Percentage Difference (Zavegepant − Placebo)” value [5, 12] was 8.9%, the “(11) Sustained pain freedom from 2 to 24 hours postdose, Stratified Percentage Difference (Zavegepant − Placebo)” value [5, 12] was 6.7% and the “(12) Sustained pain relief from 2 to 48 hours postdose, Stratified Percentage Difference (Zavegepant − Placebo)” value [5, 12] was 6.2%. For the same compound, the “(13) Sustained pain freedom from 2 to 48 hours postdose, Stratified Percentage Difference (Zavegepant − Placebo)” value [5, 12] was 5.7%, the “(2) Return to normal function at 2 hours posidose, Stratified Percentage Difference (Zavegepant − Placebo)” value [5, 13] was 7.3% and the “(7) Return to normal function at 60 minutes postdose, Stratified Percentage Difference (Zavegepant − Placebo)” value [5, 13] was 1.7%. The “(9) Return to normal function at 30 minutes postdose, Stratified Percentage Difference (Zavegepant − Placebo)” value [5, 13] was 4.5%, the “(5) Phonophobia freedom at 2 hours postdose, Stratified Percentage Difference (Zavegepant − Placebo)” value [5, 14] was 9.3% and the “(14) Nausca freedom at 2 hours postdose, Stratified Percentage Difference (Zavegepant − Placebo)” value [5, 14] was 3.7%. For the same compound, the “(9) Return to normal function … (%)” value ([5]; Zavegepant 20 mg Group, intranasal single dose) was 37/372 (9.9) %, the “secondary endpoints demonstrating early activity versus placebo” value ([5]; nominal p<0.05) was “superior to placebo on multiple secondary endpoints” and the “durability of benefits (sustained pain freedom and pain relief 2 to 24 and 2 to 48 hours)” value ([5]; nominal p<0.05, 5, 10 and 20 mg (pain relief 2 to 48 h: 5 and 10 mg)) was “durable and sustained without rescue medication out to 48 hours”.
